Results from US8835476B2, “Synthesis of novel antimicrobials” (priority 2005, dated 2014).
Values after ≈ are worked out from the molar mass of the structure shown. Read-outs that look alike come from different tables or passages of the source.

Tests used:
Type in all cases: cell-based
[1] = test system: E. cloacae clinical isolates; assay: Broth microdilution MIC, clinical isolate strains (NAUTICA); conditions: unit assumed
Description: (§1) All clinical isolates tested were from The North American Urinary Tract Infection Collaborative Alliance (NAUTICA) which is a UTI surveillance study involving 40 medical centres (30 from the US and 10 from Canada). Each centre submitted up to 50 consecutive outpatient midstream urine isolates. All isolates were deemed significant urinary tract pathogens by individual laboratory criteria and identified to the species level by each laboratory's existing protocol. Isolates were transported to the coordinating laboratory (Health Sciences Centre, Winnipeg, Canada) on charcoal swabs. Only one isolate per patient was accepted. Upon receipt, isolates were cultured by the coordinating laboratory, stocked in skim milk, and stored at −80° C. awaiting reference antibiotic susceptibility testing. Elementary demographic information was also compiled for each isolate. Isolates were selected randomly from the above pool to represent 18 different species of Enterobacteriaceae and non-Enterobacteriaceae. An average of 5 strains of each species were tested for a total of 93 organisms. In addition, 23 reference (ATCC) [both gram negative and gram positive] strains were tested.
(§2) Susceptibilities to the compounds were determined using the National Committee for Clinical Laboratory Standards (NCCLS) M7-A6 broth microdilution method. […] DMSO controls were incorporated into the panel to mimic the quantity of DMSO used in dissolving some of the compounds at the higher concentrations. Each final panel well volume was 100 μl with a bacterial inoculum of 5×10^5 colony forming units (CFU)/ml. Panels were read following 16 to 20 hours of incubation at 35° C. in ambient air. The minimum inhibitory concentration (MIC) was defined as the lowest concentration of antimicrobial inhibiting visible growth. Quality control (QC) was performed using four ATCC QC organisms that were run with every batch set up to insure reproducibility.

[2] = test system: P. vulgaris clinical isolates; assay: as above; conditions: unit assumed
Description: as §1, §2

[3] = test system: S. marcescens clinical isolates; assay: as above; conditions: unit assumed
Description: as §1, §2

[4] = test system: M. morganii clinical isolates; assay: as above; conditions: unit assumed
Description: as §1, §2

[5] = test system: C. koseril clinical isolates; assay: as above; conditions: unit assumed
Description: as §1, §2

[6] = test system: C. amalonaticus clinical isolates; assay: as above; conditions: unit assumed
Description: as §1, §2

[7] = test system: S. liquifaciens clinical isolates; assay: as above; conditions: unit assumed
Description: as §1, §2

[8] = test system: Ps. aeruginosa clinical isolates; assay: as above; conditions: unit assumed
Description: as §1, §2

[9] = test system: K. pneumoniae clinical isolates; assay: as above; conditions: unit assumed
Description: as §1, §2

[10] = test system: P. mirabilis clinical isolates; assay: as above; conditions: unit assumed
Description: as §1, §2

[11] = test system: K. oxytoca clinical isolates; assay: as above; conditions: unit assumed
Description: as §1, §2

[12] = test system: C. freundii clinical isolates; assay: as above; conditions: in µg/mL (unit assumed)
Description: as §1, §2

[13] = test system: E. aerogenes clinical isolates; assay: as above; conditions: unit assumed
Description: as §1, §2

[14] = test system: S. liquefaciens ATCC 27592; assay: Broth microdilution MIC, ATCC strains; conditions: read-out: MIC (growth inhibition, microdilution method)
Summary of the method: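 Tested per NCCLS M7-A6 broth microdilution with an inoculum of 5×10^5 CFU/ml and DMSO controls matching solvent levels. Panels were incubated 16 to 20 hours at 35° C. in ambient air, and the MIC was taken as the lowest concentration inhibiting visible growth.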

[15] = test system: B. cepacia clinical isolates; assay: Broth microdilution MIC, clinical isolate strains (NAUTICA); conditions: unit assumed
Description: as §1, §2

[16] = test system: S. maltophilia clinical isolates; assay: as above; conditions: unit assumed
Description: as §1, §2

[17] = test system: P. retgerri clinical isolates; assay: as above; conditions: unit assumed
Description: as §1, §2

[18] = test system: A. baumanii clinical isolates; assay: as above; conditions: unit assumed
Description: as §1, §2

[19] = test system: E. coli clinical isolates; assay: as above; conditions: Table 4B; each table row is one clinical isolate; unit assumed
Description: as §1, §2

[20] = test system: P. stuartii clinical isolates; assay: as above; conditions: unit assumed
Description: as §1, §2

[21] = clinical isolates, one table line per isolate
[22] = Table 4B, each table row is one clinical isolate

SMILES	MIC, E. CLOACAE [1, 22] [µg/mL]	MIC, P. VULGARIS [2, 22] [µg/mL]	MIC, B. CEPACIA [15, 22] [µg/mL]	MIC, S. MARCESCENS [3, 22] [µg/mL]	MIC, M. MORGANII [4, 22] [µg/mL]	MIC, S. MALTOPHILIA [16, 22] [µg/mL]	MIC, P. RETTGERI [17, 22] [µg/mL]	MIC, C. KOSERI [5, 22] [µg/mL]	MIC, C. AMALONATICUS [6, 22] [µg/mL]	MIC, S. LIQUEFACIENS [7, 22] [µg/mL]	MIC, PS. AER [8, 22] [µg/mL]	MIC, K. PNEUMONIAE [9, 22] [µg/mL]	MIC, P. MIRABILIS [10, 22] [µg/mL]	MIC, A. BAUMANII [18, 22] [µg/mL]	MIC, E. COLI [19] [µg/mL]	MIC, K. OXYTOCA [11, 22] [µg/mL]	MIC, P. STUARTII [20, 22] [µg/mL]	MIC, C. FREUNDII [12, 22]	MIC, E. AEROGENES [13, 22] [µg/mL]	MIC ([14]; S. liquefaciens ATCC 27592) [µg/mL]	other results
O=C(O)c1cc(-c2nnn[nH]2)c(C(=O)O)s1 [DNM-111, 3-(1H-tetrazol-5-yl)thiophene-2,5-dicarboxylic acid]																					MIC, E. CLOACAE [1, 21]: 128 µg/mL (≈ 533 µM); MIC, P. VULGARIS [2, 21]: 128 µg/mL (≈ 533 µM); MIC, S. MARCESCENS [3, 21]: 128 µg/mL (≈ 533 µM); MIC, M. MORGANII [4, 21]: 128 µg/mL (≈ 533 µM); MIC, C. KOSERI [5, 21]: 128 µg/mL (≈ 533 µM); MIC, C. AMALONATICUS [6, 21]: 128 µg/mL (≈ 533 µM); MIC, S. LIQUEFACIENS [7, 21]: 128 µg/mL (≈ 533 µM); MIC, PS. AER [8, 21]: 128 µg/mL (≈ 533 µM); MIC, K. PNEUMONIAE [9, 21]: 128 µg/mL (≈ 533 µM); MIC, P. MIRABILIS [10, 21]: 128 µg/mL (≈ 533 µM); MIC, K. OXYTOCA [11, 21]: 128 µg/mL (≈ 533 µM); MIC, C. FREUNDII [12, 21]: 128; MIC, E. AEROGENES [13, 21]: 128 µg/mL (≈ 533 µM); MIC [14]: 128 µg/mL (≈ 533 µM)
COC(=O)c1sc(-c2ccc(F)cc2)cc1-c1nnnn1C [DNM-145, 5-(4-Fluoro-phenyl)-3-(1-methyl-1H-tetrazol-5-yl)-thiophene-2-carboxylic acid methyl ester]	> 4	> 4	> 4	> 4	> 4	> 4	> 4	> 4	> 4	> 4	> 4	> 4	> 4	> 4	> 4	> 4	> 4	>4	> 4	> 4	
O=C(O)c1cc(-c2nn[nH]n2)cs1 [DNM-116, 4-(2H-Tetrazol-5-yl)-thiophene-2-carboxylic acid]																				16 (≈ 81.6 µM)	MIC, E. CLOACAE [1, 21]: 16 µg/mL (≈ 81.6 µM); MIC, B. CEPACIA [15, 21]: 16 µg/mL (≈ 81.6 µM); MIC, S. MARCESCENS [3, 21]: 16 µg/mL (≈ 81.6 µM); MIC, M. MORGANII [4, 21]: 16 µg/mL (≈ 81.6 µM); MIC, S. MALTOPHILIA [16, 21]: 16 µg/mL (≈ 81.6 µM); MIC, P. RETTGERI [17, 21]: 16 µg/mL (≈ 81.6 µM); MIC, C. KOSERI [5, 21]: 16 µg/mL (≈ 81.6 µM); MIC, C. AMALONATICUS [6, 21]: 16 µg/mL (≈ 81.6 µM); MIC, S. LIQUEFACIENS [7, 21]: 16 µg/mL (≈ 81.6 µM); MIC, K. PNEUMONIAE [9, 21]: 16 µg/mL (≈ 81.6 µM); MIC, P. MIRABILIS [10, 21]: 16 µg/mL (≈ 81.6 µM); MIC, A. BAUMANII [18, 21]: 16 µg/mL (≈ 81.6 µM); MIC, K. OXYTOCA [11, 21]: 16 µg/mL (≈ 81.6 µM); MIC, P. STUARTII [20, 21]: 16 µg/mL (≈ 81.6 µM); MIC, C. FREUNDII [12, 21]: 16; MIC, E. AEROGENES [13, 21]: 16 µg/mL (≈ 81.6 µM)
Cn1nnnc1-c1cc(-c2ccc(F)cc2)sc1-c1ccc(F)cc1 [DNM-133, 5-(2,5-Bis(4-fluorophenyl)thiophen-3-yl)-1-methyl-1H-tetrazole]	> 16	> 16	> 16	> 16	> 16	> 16	> 16	> 16	> 16	> 16	> 16	> 16	> 16	> 16	> 16	> 16	> 16	>16	> 16	> 16	
Cn1nnc(-c2cc(-c3ccc(F)cc3)sc2C(=O)O)n1 [DNM-142, 5-(4-Fluoro-phenyl)-3-(2-methyl-2H-tetrazol-5-yl)-thiophene-2-carboxylic acid]	> 16	> 16	> 16	> 16	> 16	> 16	> 16	> 16	> 16	> 16	> 16	> 16	> 16	> 16	> 16	> 16	> 16	>16	> 16	> 16	
